Source: ChEMBL document CHEMBL5233227, “Allosteric inhibitors of the STAT3 signaling pathway” (Eur J Med Chem, 2020)

Molecular target: Signal transducer and activator of transcription 3 (Homo sapiens, UniProt P40763)
Test: Inhibition of human STAT3 expressed in human HepG2 cells incubated for 1.5 hrs by luciferase assay
Type: cell-based

Sequence of Signal transducer and activator of transcription 3 (P40763 whole entry): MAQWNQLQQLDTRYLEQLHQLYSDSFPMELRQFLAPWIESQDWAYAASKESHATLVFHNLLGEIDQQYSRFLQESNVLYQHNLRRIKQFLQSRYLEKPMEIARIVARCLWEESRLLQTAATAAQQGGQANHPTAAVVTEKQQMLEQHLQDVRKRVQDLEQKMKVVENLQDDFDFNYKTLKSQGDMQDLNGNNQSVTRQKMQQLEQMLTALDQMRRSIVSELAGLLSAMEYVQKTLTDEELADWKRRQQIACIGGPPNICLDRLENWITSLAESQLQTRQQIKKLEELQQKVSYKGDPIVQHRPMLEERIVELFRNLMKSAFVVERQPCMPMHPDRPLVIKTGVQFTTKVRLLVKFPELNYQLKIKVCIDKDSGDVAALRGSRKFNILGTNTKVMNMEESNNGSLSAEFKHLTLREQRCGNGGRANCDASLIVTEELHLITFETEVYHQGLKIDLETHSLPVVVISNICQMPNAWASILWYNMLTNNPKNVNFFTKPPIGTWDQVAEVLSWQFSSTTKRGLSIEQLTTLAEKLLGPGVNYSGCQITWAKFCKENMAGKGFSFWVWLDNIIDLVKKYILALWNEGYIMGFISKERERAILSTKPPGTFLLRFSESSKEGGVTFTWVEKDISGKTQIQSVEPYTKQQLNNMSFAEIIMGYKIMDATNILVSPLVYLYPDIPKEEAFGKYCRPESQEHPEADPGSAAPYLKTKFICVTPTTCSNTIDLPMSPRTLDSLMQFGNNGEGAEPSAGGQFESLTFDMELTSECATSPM

IC50: 200 nM
Compound: CC(CO)C1OC(=O)C=C2C13OC3CC13COC(=O)C1(C)CC(O)CC23C (stereo unspecified)
